Experimental data published in paper PMC5934329 (Neuropharmacology, 2017).
Values joined by “and” are separate entries in the source; they are usually repeats but may differ in a detail not shown here. Equal values may be shown once. Read-outs that look alike come from different tables or passages of the source.

Tests used:
male C57BL/6 inbred mice = assay: THC drug discrimination; assay type: in vivo; conditions: for Effect on response rate: compared to vehicle; for ED50 for substitution in THC discrimination: mice trained with 5.6 mg/kg THC i.p., value (95% confidence limits); for ED50: Mus musculus, ip, read-out: ED50 for substitution in THC discrimination
hCB2 receptor = hCB2 receptor (Homo sapiens, UniProt P34972); assay: Agonist-stimulated [35S]GTPγS binding, hCB2 membranes; conditions: for Emax: read-out: [35S]GTPγS Turnover CB2 Emax
hCB2 receptor, sequence (P34972 whole entry): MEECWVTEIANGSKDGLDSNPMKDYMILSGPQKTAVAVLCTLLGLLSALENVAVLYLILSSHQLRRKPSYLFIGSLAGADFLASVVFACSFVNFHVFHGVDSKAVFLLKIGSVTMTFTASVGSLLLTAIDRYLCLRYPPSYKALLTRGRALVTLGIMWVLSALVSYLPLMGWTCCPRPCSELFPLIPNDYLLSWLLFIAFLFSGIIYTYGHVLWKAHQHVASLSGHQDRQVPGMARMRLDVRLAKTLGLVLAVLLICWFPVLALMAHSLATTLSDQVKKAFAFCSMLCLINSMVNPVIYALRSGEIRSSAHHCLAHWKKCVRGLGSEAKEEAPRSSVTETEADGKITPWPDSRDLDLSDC

human CB1 (hCB1) = human CB1 (hCB1) (Homo sapiens, UniProt P21554); assay: [3H]CP55,940 displacement binding at hCB1 membranes
human CB1 (hCB1), sequence (P21554 whole entry): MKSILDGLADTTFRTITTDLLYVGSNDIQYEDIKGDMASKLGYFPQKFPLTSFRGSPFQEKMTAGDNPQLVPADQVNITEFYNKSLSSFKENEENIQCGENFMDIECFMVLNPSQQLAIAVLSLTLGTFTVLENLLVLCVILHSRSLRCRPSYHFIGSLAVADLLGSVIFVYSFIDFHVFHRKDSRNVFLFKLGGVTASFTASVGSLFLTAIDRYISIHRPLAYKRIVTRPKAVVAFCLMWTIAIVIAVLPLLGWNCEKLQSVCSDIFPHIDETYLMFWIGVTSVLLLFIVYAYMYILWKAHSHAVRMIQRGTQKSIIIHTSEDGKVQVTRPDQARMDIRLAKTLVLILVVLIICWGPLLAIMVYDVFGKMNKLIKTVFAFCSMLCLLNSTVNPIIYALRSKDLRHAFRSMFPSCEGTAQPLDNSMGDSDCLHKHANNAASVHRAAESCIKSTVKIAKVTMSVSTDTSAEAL

human CB2 (hCB2) = human CB2 (hCB2) (Homo sapiens, UniProt P34972); assay: [3H]CP55,940 displacement binding at hCB2 membranes
human CB2 (hCB2), sequence (P34972 whole entry): as the sequence (P34972 whole entry) above

hCB1 receptor = hCB1 receptor (Homo sapiens, UniProt P21554); assay: Agonist-stimulated [35S]GTPγS binding, hCB1 membranes; conditions: for Emax: read-out: [35S]GTPγS Turnover CB1 Emax
hCB1 receptor, sequence (P21554 whole entry): as the sequence (P21554 whole entry) above

CB1 receptors = conditions: read-out: CB1 affinity; rat CB1 receptors ref Huffman et al., 2005; cited from earlier work

SMILES	ED50 for substitution in THC discrimination (male C57BL/6 inbred mice)	EC50 (hCB2 receptor)	Emax (hCB2 receptor)	Ki (human CB1 (hCB1))	Ki (human CB2 (hCB2))	ED50 (male C57BL/6 inbred mice)	EC50 (hCB1 receptor)	Emax (hCB1 receptor)	also measured
CCCCCCC(C)(C)c1ccc(C2CC(O)CCC2CCCO)c(O)c1 (single isomer, unassigned; (-)) [CP55,940, (-)-cis-3-[2-Hydroxy-4-(1,1-dimethylheptyl)phenyl]-trans-4-(3-hydroxypropyl)cyclohexanol, reference compound]	0.07 (0.04-0.14) μmol/kg								Substitution for THC in drug discrimination (male C57BL/6 inbred mice; 0.3 mg/kg): full substitution; Effect on response rate (male C57BL/6 inbred mice; 0.3 mg/kg): reductions in response rates
CCCCCn1cc(C(=O)c2ccccc2I)c2ccccc21 [AM-679, (2-iodophenyl)(1-pentyl-1H-indol-3-yl)methanone]		19 nM	31.1%	39.6 nM	2.1 nM	5.8 µmol/kg	881 nM	132%	
CN1CCCC[C@@H]1Cn1cc(C(=O)c2cccc3ccccc23)c2ccccc21 [AM-1220, (R)-(1-((1-methylpiperidin-2-yl)methyl)-1H-indol-3-yl)(naphthalen-1-yl)methanone]					0.26 nM	0.26 µmol/kg		132%	[35S]GTPγS Turnover CB2 Emax (hCB2 receptor; % maximal increase over basal, hCB2, value (SEM)): Not determinable; [35S]GTPγS Turnover CB2 EC50 (hCB2 receptor; hCB2 membranes, value (SEM)): Not determinable
N#CCCCCn1cc(C(=O)c2cccc3ccccc23)c2ccccc21 [AM-2232, 5-(3-(1-naphthoyl)-1H-indol-1-yl)pentanenitrile]		406 nM	31.3%	14.5 nM	11.2 nM	0.54 µmol/kg	833 nM	204%	Substitution for THC in drug discrimination (male C57BL/6 inbred mice; 1.0 mg/kg): full substitution; Effect on response rate (male C57BL/6 inbred mice; 1.0 mg/kg): reductions in response rates
CN1CCCCC1Cn1cc(C(=O)c2ccccc2I)c2ccccc21 (stereo not shown) [AM-2233, 1-[(N-methylpiperidin-2-yl)methyl]-3-(2-iodobenzoyl)indole]		715 nM	21%	6.63 nM	0.48 nM	0.42 µmol/kg	213 nM	144%	
CCc1ccc(C(=O)c2cn(CCCCCF)c3ccccc23)c2ccccc12 [EAM-2201, (4-ethyl-1-naphthalenyl)[1-(5-fluoropentyl)-1H-indol-3-yl]-methanone]		91.9 nM	40.2%	0.41 nM	0.38 nM	0.04 µmol/kg	46.8 nM	270%	Effect on response rate (male C57BL/6 inbred mice; across the dose range tested): no doses produced significant differences from vehicle
CCCCCn1cc(C(=O)c2ccc(CC)c3ccccc23)c2ccccc21 [JWH-210, 4-ethylnaphthalen-1-yl-(1-pentylindol-3-yl)methanone]		51 nM	43.6%		0.94 nM	0.33 µmol/kg	116 nM	287%	
CCCCCn1cc(C(=O)Cc2ccccc2C)c2ccccc21 [JWH-251, 2-(2-methylphenyl)-1-(1-pentyl-1H-indol-3-yl)ethenone]	4.07 (3.11-5.31) μmol/kg								EC50 (hCB2 receptor; read-out: [35S]GTPγS Turnover CB2 EC50, hCB2 membranes, value (SEM)): 1520 nM; Ki (CB1 receptors): 29 ± 3 nM; Ki (human CB1 (hCB1); read-out: CB1 Ki, [3H]CP55,940 displacement, hCB1, value (SEM)): 16 nM and 16.2 nM; Ki (human CB2 (hCB2); read-out: CB2 Ki, [3H]CP55,940 displacement, hCB2, value (SEM)): 15 nM and 15.1 nM; [35S]GTPγS Turnover CB1 Emax (hCB1 receptor; % maximal increase over basal, hCB1, value (SEM)): 227.6 (31.6) 3%; EC50 (hCB1 receptor; read-out: [35S]GTPγS Turnover CB1 EC50, hCB1 membranes, value (SEM)): 918 nM
Cc1ccc(C(=O)c2cn(CCCCCF)c3ccccc23)c2ccccc12 [MAM-2201, (1-(5-fluoropentyl)-1H-indol-3-yl)(4-methyl-1-naphthalenyl)-methanone]		1.93 nM	23.2%	1.86 nM	0.59 nM	0.11 µmol/kg	36.1 nM	310%	Potency for stimulating [35S]GTPγS turnover at CB2 relative to CP55,940 (hCB2 receptor; more potent than CP55,940): approximately 4 fold; Substitution for THC in drug discrimination (male C57BL/6 inbred mice; 0.3 mg/kg): full substitution; Effect on response rate (male C57BL/6 inbred mice; 0.3 mg/kg): reductions in response rates
CCCCCc1cc(O)c2c(c1)OC(C)(C)[C@@H]1CCC(C)=C[C@@H]21 [THC, Δ^9-tetrahydrocannabinol, reference compound]	4.96 (3.41-7.21) μmol/kg								Effect on response rate (male C57BL/6 inbred mice; across the dose range tested): did not alter response rates
